Our source for the IC50 values is ChEMBL document CHEMBL4680187, “Optimization of EphA2 antagonists based on a lithocholic acid core led to the identification of UniPR505, a new 3α-carbamoyloxy derivative with antiangiogenetic properties” (Eur J Med Chem, 2020).

One test deals with Ephrin type-A receptor 5 (Rattus norvegicus, UniProt P54757). Put plainly: Displacement of biotinylated ephrin-A1-Fc from rat EphA5 Fc preincubated for 1 hr followed by ephrin-A1-FC addition and measured after 4 hrs by ELISA. For orientation: ELISA stands for enzyme-linked immunosorbent assay.
Ephrin type-A receptor 5, sequence (P54757 whole entry): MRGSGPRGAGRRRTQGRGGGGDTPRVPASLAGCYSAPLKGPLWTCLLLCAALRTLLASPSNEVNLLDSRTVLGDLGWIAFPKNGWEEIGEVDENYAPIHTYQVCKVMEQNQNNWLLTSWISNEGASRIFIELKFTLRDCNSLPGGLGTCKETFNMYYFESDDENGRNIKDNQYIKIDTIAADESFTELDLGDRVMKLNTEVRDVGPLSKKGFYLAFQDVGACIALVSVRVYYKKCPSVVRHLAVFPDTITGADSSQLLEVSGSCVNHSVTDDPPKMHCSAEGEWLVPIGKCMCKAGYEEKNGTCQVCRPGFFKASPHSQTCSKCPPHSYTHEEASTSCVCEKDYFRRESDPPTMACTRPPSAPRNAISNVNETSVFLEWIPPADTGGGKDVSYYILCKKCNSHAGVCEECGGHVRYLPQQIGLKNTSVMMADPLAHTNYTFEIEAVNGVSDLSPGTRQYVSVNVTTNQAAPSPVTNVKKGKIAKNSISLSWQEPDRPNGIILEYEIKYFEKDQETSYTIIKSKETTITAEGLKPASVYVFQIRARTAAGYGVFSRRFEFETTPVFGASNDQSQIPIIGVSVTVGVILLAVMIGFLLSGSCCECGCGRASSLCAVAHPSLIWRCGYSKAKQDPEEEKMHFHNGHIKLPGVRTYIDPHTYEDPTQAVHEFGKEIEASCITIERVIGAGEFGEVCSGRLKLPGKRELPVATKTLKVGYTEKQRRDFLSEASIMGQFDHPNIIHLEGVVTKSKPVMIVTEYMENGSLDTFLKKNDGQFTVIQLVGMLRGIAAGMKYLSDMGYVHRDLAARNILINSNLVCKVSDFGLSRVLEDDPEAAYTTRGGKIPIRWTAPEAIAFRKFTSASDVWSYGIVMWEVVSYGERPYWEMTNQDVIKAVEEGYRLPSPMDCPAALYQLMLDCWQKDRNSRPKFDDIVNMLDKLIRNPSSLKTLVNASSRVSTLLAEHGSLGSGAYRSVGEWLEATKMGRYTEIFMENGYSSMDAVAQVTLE
The next test has as its target Ephrin type-A receptor 4 (Mus musculus, UniProt Q03137). In words: Displacement of biotinylated ephrin-A1-Fc from mouse EphA4 Fc preincubated for 1 hr followed by ephrin-A1-FC addition and measured after 4 hrs by ELISA.
In another test the target is T1, Ephrin type-A receptor 8 (Mus musculus, UniProt O09127).
T1 sequence (O09127 whole entry): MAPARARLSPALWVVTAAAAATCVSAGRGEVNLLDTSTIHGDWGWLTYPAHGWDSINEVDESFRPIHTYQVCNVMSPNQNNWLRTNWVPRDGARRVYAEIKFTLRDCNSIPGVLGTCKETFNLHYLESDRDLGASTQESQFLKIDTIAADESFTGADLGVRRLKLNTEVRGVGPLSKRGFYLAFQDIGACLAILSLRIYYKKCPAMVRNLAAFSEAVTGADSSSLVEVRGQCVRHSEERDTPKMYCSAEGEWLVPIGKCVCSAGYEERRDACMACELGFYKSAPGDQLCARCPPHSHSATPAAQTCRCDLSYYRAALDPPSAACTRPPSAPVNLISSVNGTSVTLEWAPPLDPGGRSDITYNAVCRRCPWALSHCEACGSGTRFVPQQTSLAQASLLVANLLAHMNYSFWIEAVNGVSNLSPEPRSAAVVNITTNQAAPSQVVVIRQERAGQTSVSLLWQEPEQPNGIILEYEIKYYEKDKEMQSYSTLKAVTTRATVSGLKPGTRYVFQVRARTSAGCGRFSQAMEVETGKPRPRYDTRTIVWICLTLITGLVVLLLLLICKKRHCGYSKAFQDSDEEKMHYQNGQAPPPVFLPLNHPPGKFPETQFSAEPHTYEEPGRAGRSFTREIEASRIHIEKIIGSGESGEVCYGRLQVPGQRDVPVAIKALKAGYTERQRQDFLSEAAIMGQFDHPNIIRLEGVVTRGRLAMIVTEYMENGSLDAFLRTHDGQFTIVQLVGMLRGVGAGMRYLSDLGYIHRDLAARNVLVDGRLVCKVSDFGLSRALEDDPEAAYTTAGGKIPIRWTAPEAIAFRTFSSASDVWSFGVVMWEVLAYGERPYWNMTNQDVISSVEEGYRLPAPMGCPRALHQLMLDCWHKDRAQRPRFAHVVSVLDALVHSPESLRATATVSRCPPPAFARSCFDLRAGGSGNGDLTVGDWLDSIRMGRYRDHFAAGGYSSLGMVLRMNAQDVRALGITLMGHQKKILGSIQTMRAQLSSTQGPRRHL
Put plainly: Displacement of biotinylated ephrin-A1-Fc from mouse EphA8 Fc preincubated for 1 hr followed by ephrin-A1-FC addition and measured after 4 hrs by ELISA.

The test system of another test is HUVEC. In words: Antiangiogenic activity in HUVEC assessed as reduction in number of polygons formation after 16 hrs by matrigel-based microscopic analysis. Conditions: Homo sapiens.
For the next test, the target named is Ephrin type-A receptor 2 (Mus musculus, UniProt Q03145). Put plainly: Displacement of biotinylated ephrin-A1-Fc from recombinant mouse c-terminal His6-tagged EphA2 Fc (Ala22 to Ala535 residues) preincubated for 1 hr followed by ephrin-A1-FC addition and measured after 4 hrs by ELISA.
Ephrin type-A receptor 2, sequence (Q03145 whole entry): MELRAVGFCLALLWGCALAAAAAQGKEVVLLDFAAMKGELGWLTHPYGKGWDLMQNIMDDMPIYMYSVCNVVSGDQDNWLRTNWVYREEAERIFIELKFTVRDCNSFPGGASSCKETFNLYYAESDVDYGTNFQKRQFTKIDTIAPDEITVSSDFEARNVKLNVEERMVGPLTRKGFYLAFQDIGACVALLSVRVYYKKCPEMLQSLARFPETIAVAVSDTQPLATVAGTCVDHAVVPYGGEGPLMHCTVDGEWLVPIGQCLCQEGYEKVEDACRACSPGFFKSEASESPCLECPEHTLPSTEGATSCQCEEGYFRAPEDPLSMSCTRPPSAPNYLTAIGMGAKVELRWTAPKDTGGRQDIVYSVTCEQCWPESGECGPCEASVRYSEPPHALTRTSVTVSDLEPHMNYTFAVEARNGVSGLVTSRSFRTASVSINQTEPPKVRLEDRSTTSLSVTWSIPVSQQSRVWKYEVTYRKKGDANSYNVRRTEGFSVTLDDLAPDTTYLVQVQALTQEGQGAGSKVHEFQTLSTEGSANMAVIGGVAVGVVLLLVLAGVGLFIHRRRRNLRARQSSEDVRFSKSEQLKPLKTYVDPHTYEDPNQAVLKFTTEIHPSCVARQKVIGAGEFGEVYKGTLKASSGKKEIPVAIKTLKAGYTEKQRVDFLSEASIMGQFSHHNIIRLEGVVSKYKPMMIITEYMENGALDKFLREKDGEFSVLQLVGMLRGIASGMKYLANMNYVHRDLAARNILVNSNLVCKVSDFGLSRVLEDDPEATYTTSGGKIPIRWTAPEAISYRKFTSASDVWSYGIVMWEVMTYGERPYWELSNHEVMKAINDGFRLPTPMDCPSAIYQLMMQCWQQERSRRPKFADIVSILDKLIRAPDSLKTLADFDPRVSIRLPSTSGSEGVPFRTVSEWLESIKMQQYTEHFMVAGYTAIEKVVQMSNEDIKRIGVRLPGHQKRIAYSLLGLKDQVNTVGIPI
The target in a further test is T2, Ephrin type-B receptor 6 (Mus musculus, UniProt O08644).
T2 sequence (O08644 whole entry): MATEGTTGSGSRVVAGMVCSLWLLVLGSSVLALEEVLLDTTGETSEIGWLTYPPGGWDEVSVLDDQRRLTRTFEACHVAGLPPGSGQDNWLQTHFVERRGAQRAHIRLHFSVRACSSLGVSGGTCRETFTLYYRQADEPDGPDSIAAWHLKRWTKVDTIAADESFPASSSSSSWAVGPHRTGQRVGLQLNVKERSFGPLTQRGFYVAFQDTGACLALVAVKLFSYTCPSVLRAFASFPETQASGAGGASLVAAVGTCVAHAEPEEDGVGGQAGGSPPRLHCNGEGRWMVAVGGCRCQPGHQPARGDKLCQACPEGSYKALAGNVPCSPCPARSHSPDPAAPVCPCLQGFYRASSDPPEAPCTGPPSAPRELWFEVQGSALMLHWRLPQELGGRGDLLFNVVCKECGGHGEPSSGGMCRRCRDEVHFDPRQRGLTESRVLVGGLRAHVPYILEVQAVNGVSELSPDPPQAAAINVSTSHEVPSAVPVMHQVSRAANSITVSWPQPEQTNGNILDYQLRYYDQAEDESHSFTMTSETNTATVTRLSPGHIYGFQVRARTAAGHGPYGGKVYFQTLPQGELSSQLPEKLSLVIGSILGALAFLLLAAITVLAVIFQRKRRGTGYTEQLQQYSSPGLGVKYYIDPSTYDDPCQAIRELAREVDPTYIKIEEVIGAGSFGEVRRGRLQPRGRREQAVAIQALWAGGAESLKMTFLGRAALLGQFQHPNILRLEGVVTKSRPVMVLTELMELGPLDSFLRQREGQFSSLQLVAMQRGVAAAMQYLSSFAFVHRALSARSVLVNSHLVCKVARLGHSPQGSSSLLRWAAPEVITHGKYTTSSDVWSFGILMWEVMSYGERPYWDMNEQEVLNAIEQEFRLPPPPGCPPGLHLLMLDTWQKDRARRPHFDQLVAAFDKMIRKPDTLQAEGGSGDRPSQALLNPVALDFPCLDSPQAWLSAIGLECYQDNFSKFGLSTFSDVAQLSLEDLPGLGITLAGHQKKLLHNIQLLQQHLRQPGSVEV
In words: Displacement of biotinylated ephrin-B1-Fc from mouse EphB6 Fc preincubated for 1 hr followed by ephrin-B1-FC addition and measured after 4 hrs by ELISA.

SMILES strings stand for the structures. pIC50: −log10 of the molar value.

Ephrin type-A receptor 4, sequence (Q03137 whole entry): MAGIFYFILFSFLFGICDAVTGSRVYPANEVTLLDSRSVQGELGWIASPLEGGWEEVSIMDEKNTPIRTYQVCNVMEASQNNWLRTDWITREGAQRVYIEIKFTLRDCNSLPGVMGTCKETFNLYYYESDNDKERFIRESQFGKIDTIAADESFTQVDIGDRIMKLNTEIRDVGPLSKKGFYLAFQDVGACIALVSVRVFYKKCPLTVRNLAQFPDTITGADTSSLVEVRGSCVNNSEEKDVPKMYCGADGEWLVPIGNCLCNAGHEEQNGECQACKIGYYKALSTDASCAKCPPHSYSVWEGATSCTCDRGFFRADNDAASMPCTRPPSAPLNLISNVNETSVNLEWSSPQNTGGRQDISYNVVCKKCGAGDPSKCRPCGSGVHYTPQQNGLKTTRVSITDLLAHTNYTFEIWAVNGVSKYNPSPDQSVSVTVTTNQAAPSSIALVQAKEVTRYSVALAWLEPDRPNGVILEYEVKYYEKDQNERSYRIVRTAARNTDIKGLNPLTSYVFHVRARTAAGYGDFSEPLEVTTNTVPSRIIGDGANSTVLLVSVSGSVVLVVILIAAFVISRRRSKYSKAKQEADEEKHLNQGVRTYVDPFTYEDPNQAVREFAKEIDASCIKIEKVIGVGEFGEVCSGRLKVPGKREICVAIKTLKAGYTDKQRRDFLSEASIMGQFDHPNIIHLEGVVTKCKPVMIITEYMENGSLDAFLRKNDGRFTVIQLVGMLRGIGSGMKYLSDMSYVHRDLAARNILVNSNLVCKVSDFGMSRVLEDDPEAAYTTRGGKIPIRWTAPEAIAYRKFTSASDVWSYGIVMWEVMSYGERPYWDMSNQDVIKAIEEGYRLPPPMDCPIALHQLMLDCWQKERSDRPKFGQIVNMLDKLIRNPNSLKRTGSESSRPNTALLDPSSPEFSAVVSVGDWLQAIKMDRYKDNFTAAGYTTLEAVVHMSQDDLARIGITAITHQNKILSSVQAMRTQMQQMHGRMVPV

For the molecule `CCNC(=O)O[C@@H]1CC[C@@]2(C)[C@H](CC[C@@H]3[C@@H]2CC[C@]2(C)[C@@H]([C@H](C)CCC(=O)N[C@H](CC(=O)O)Cc4c[nH]c5ccccc45)CC[C@@H]32)C1`, the negative-log IC50 (pIC50) on Ephrin type-A receptor 5 was 5.36; at Ephrin type-A receptor 4 it was 5.19; at Ephrin type-A receptor 8, 5.11; in the test with HUVEC, 5.52; at Ephrin type-A receptor 2, 6.02; on Ephrin type-B receptor 6, less than 4.52.

As usually defined, the pIC50 is the negative decadic logarithm of the IC50, by convention in mol/L.
